The experiment deals with T1, γ-secretase (Homo sapiens, UniProt P49768).
T1 construct: Human neuroglioma H4 cells overexpressing human APP695; endogenous in cells; host or cells: human neuroglioma H4 cells stably overexpressing human APP695 Swedish
In words: Cellular γ-secretase assay (inhibition of Aβ42 secretion, AlphaLisa). It is filed as cell-based. Conditions: Human neuroglioma H4 cells overexpressing human APP695 Swedish double mutation; 24 hr compound incubation; secreted Aβ42 in supernatant. As to the method:
Description of γ-Secretase Assay
Cellular γ-Secretase Assay
Human neuroglioma H4 cells overexpressing human APP695 with the Swedish double mutation (K595N/M596L) were plated at 30,000 cells/well/100 al in 96-well plates in IMDM media containing 10% FCS, […] Hygromycin B and incubated at 37° C., 5% CO2.
3-4 hr post plating, compounds are a diluted in media and 50 μl is added as 1.5-fold concentrate to achieve the final concentration. Compound incubation is performed for 24 hr. Final doses typically range from 4 μM down to 0.0013 μM in half-log steps resulting in a eight point dose response curve.
Appropriate controls using vehicle only and reference compound were applied to this assay. The final concentration of Me2SO was 0.4%.
After incubation at 37° C., 5% CO2, the supernatant was subjected to quantification of secreted Aβ42 by the means of an AlphaLisa assay kit (Human Amyloid beta 1-42 Kit: Cat #AL203C, Perkin Elmer). 20 μl of the cell culture supernatant was transferred to an assay plate. Then 10 μl of a mixture of the AlphaLisa coupled capture antibody and the biotinylated detection antibody was added and incubated for 3 hours at room temperature while softly shaking the assay plate. After a further addition of 20 μl of the Donor beads the assay plate was incubated for 30 min at room temperature and constant shaking without exposure to direct light. The assay plate was then read on a Paradigm AlphaLisa Reader using the build-in program with excitation at 680 nm and emission at […].
The measured signals were then used to calculate IC50 values for inhibition of Aβ42 secretion by nonlinear regression fit analysis using XLfit 5.3 software (IDBS).
Background: Alpha assays give light when donor and acceptor beads are brought close together.

Molecules are shown by their SMILES.

For the compound `Cc1cc(N2C[C@H]3CC[C@@H](C2)[C@@H]3Nc2nc3n(n2)CCCCC3c2ccc(F)c(F)c2F)ncn1` (mixture of isomers) [Example 14, N-[(1R,5S,8S)-3-(6-methylpyrimidin-4-yl)-3-azabicyclo[3.2.1]octan-8-yl]-9-(2,3,4-trifluorophenyl)-6,7,8,9-tetrahydro-5H-[1,2,4]triazolo[1,5-a]azepin-2-amine], the response was half-maximal at 12.6 nM (EC50).

What is called EC50 is the concentration needed to bring the measured effect to its halfway point.

Values taken from US10941147B2, “Bicyclic heteroaryl derivatives” (Hoffmann-La Roche Inc., priority 2016, dated 2021).
